Assay results published in PMC9640990 (Frontiers in Pharmacology, 2022).
Read-outs that look alike come from different tables or passages of the source.

Legend:
hMDR1 = target: T1, hMDR1 (Homo sapiens, UniProt P08183); experiment: hMDR1-mediated efflux of rhodamine 123 in hMDR1-MDCK cells; assay type: cell-based; conditions: for efflux of MDR1-mediated rhodamine 123: concentration range 0.3 to 30 µM; for inhibitory effect on MDR1 activity: hMDR1-MDCK cells, co-incubation 0.3 to 30 µM
T1 construct: host or cells: MDCK
T1 sequence (P08183 whole entry): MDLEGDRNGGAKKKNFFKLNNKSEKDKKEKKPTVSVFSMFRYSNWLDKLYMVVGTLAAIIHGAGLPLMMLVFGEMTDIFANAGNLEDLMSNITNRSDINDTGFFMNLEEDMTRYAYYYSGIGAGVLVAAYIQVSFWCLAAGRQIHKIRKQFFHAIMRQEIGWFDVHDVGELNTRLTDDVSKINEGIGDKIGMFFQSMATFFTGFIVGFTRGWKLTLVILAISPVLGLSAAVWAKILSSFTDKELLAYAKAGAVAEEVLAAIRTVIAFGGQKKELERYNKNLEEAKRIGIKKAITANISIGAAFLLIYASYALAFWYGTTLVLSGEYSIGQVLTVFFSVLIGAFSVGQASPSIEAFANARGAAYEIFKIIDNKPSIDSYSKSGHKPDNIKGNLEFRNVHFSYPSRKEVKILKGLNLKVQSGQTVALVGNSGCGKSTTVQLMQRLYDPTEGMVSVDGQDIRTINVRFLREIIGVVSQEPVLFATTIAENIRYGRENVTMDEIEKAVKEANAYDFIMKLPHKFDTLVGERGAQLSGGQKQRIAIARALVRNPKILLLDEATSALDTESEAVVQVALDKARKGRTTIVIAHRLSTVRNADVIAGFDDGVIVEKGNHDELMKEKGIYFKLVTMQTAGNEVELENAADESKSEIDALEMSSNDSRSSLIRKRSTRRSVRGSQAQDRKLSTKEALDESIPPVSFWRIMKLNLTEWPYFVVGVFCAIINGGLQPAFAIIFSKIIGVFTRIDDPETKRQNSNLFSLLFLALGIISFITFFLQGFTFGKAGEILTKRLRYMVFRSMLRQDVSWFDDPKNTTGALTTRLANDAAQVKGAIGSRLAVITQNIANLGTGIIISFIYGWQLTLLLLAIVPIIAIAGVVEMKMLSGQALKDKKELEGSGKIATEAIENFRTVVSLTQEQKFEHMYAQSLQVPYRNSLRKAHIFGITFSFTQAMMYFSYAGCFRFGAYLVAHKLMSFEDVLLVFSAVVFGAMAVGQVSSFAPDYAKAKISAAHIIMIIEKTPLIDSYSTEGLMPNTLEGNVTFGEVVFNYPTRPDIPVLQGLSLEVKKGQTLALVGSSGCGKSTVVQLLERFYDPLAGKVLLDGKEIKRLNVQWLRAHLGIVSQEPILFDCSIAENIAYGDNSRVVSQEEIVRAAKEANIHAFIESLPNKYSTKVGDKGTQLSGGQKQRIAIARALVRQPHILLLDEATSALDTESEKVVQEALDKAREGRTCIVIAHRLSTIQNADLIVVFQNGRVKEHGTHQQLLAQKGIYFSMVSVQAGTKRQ

BCRP mRNA = BCRP mRNA expression in Caco-2 cells (qRT-PCR); assay type: cell-based; conditions: 48 h pretreatment, bosentan 20 μM, GA 50 μM, PCA 50 μM, PCE 100 mg/ml
Description: (§1) After the incubation period, cells were harvested from the Transwell inserts for RNA extraction. […] Real-time quantitative PCR (qRT-PCR) was performed on an ABI Prism 7900HT Sequence Detection System (Applied Biosystems, Foster City, CA, United States) for the analysis of MDR1 and BCRP genes. Primers of housekeeping gene β-actin was used as internal controls. […] The relative gene expression levels were determined using the comparative CT method (ΔΔCT method). The cut-off CT was set at 35 cycles for all analyses. An arbitrary classification system was assigned to the data, designating relative expression levels >2 as high mRNA expression, levels between 2 and 1 as moderate mRNA expression, levels between 1 and 0.1 as low mRNA expression and levels <0.1 as unexpressed.

hOAT3 = hOAT3 (Homo sapiens, UniProt Q8TCC7); experiment: Inhibition of hOAT3-mediated uptake of 3H-ES in hOAT3-MDCK cells; assay type: cell-based
Sequence of hOAT3 (Q8TCC7 whole entry): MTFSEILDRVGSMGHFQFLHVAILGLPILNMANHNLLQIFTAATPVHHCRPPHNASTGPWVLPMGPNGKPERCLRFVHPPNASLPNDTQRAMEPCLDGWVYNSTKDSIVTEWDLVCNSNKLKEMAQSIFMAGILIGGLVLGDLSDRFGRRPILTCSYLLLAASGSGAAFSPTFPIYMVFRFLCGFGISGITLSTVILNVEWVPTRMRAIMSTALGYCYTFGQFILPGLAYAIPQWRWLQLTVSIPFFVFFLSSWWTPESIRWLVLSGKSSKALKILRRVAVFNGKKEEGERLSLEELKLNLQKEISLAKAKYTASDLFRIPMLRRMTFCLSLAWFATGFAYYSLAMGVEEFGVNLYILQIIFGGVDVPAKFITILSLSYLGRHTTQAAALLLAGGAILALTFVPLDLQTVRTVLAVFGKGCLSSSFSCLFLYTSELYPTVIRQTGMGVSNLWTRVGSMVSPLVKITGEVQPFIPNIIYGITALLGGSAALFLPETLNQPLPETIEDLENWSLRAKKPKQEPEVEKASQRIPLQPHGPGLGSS
Description: Considering the relative exposure characteristics, GA and PCA were selected as PK-marker and Q-marker components of PCE in previous studies ([Ma et al., 2015]; [Ma et al., 2016]; [Li et al., 2021b]). In this study, we investigated the concentration-dependent inhibitions of GA and PCA on multiple transporters, including OAT1, OAT3, OCT2, MDR1, and BCRP. Stably expressing cell lines of hOAT1-MDCK, hOAT3-MDCK, hOCT2-S2, hMDR1-MDCK, hBCRP-MDCK, and their mock cells were obtained from Japan Fuji Biomedical Co., Ltd. The cells were maintained in DMEM (Sigma) supplemented with 10% FCS, 1% non-essential amino acids (Sigma), and 2% L-glutamine. The medium for the Transwell® plates (Corning Costar, Cambridge, MA, United States) was supplemented with 0.1% gentamicin. Membrane filters were placed in a 12 mm well with 1.5 and 0.5 ml of culture medium in the basolateral and apical compartments, respectively. Cells were cultured at 37°C in an atmosphere of 5% CO2. The inhibition experiments were adapted from previous methods with minor modifications ([Li et al., 2021a]; [2021b]).
Briefly, the hOAT1-MDCK, hOAT3-MDCK, and hOCT2-S2 cells were trypsinized and suspended in the culture medium to provide a density of 1.5 × 10^5 cells/ml. After incubating for 48 h, the cells were washed twice with preheated DPBS and then pre-incubated with DPBS for 10 min at 37°C. 500 µl of DPBS containing probe substrates was added to initiate the uptake in the presence or absence of GA, PCA or positive inhibitors. The hMDR1-MDCK and hBCRP-MDCK cells were suspended at a density of 4.0 × 10^5 cells/ml. After cultivation for 7 days, cells were washed twice and equilibrated for 30 min at 37°C with the pre-warmed HBSS buffer. […] The radioactive intensity of ^14C-PAH, ^3H-ES, and ^14C-TEA was measured using a Tri-Carb 2910TR scintillator (PerkinElmer, United States). Fluorescence was measured at 485 nm (excitation) and 546 nm (emission) for rhodamine 123, and 425 nm (excitation) and 528 nm (emission) for lucifer yellow. IC50 values were determined by employing GraphPad Prism 9.

[1] = system: Staphylococcus aureus and Escherichia coli; parameters: method as in Fifere et al., 2022; conditions: in vitro, especially that of levofloxacin; ref Fifere et al., 2022; cited from earlier work
MDR1 mRNA = MDR1 mRNA expression in Caco-2 cells (qRT-PCR); assay type: cell-based; conditions: 48 h pretreatment, bosentan 20 μM, GA 50 μM, PCA 50 μM, PCE 100 mg/ml
Description: as §1

Caco-2 cells = experiment: Bidirectional transport of ciprofloxacin in Caco-2 cells; assay type: in vitro ADME; conditions: GA 50 μM, PCA 50 μM, PCE 100 mg/ml, p < 0.05
Description: The Caco-2 cell lines were obtained from the National Collection of Authenticated Cell Cultures (NCACC, Shanghai, China). The bi-directional transport assay was performed on 12-mm Transwell Permeable Supports with 0.4 mm-pore polycarbonate membrane insert and 1.12 cm^2 growth areas. […] The cells were seeded at a density of 3×10^5 cells/well, incubated at 37°C and 5% CO2, and cultured for 21 days with replacement of cell culture medium supplemented with 1% penicillin-streptomycin every second day. Membrane filters were placed in a 12 mm well with 1.5 and 0.5 ml of culture medium in the basolateral and apical compartments, respectively. TEER was measured as an indication of an intact monolayer using a Millicell ERS voltohmmeter (Millipore, Merck). […] Aliquots of 50 μl were collected from the acceptor compartment at 0.5 h. The apparent permeability coefficient (P app) was calculated using the following formula: P app = (dC/dt) × V r/(A × C 0), where dC/dt is the alteration in concentration over time, V r is the volume of the receiver compartment, A is the area of the cell monolayer, and C 0 is the initial concentration in the donor compartment. The permeation of drug from the apical (A) to the basolateral (B) side of the cells (P app,A-B) is compared with the permeation in the opposite direction (P app,B-A).

[2] = plasma PK-marker, human subjects, oral single dose of PCE (8 g) alone

Row | Compound | efflux of MDR1-mediated rhodamine 123 (hMDR1) | inhibitory effect on MDR1 activity (hMDR1) | increase of BCRP mRNA expression (BCRP mRNA) | IC50 (hOAT3; hOAT3-MDCK cells, 3H-ES 0.05 µM, read-out: IC50, hOAT3) | increase of the antibacterial activity [1] | CL/F (plasma PK-marker, human subjects, multiple doses of PCE (8 g, TID, seven days) + CIP 0.5 g) | C max [2] | CL/F [2] | CL/F (plasma PK-marker, human subjects, single dose of PCE (8 g) + CIP 0.5 g) | increase of MDR1 (P-gp) mRNA expression (MDR1 mRNA) | change of net efflux ratio of CIP after co-treatment (Caco-2 cells) | IC50 (hOAT3) | CL/F (human, in vivo, po)
1 | O=C(O)c1ccc(O)c(O)c1 [PCA, protocatechuic acid] | concentration-dependent increase | no inhibitory effect | 3.33 fold | 152 µM | up to 50% | 5.78 ± 1.57 L/h | 6.07 ± 1.48 ng/mL | 5.64 ± 1.45 L/h | 4.26 ± 0.91 L/h | 3.56 fold | significant improvement | – | –
2 | O=C(O)c1cc(O)c(O)c(O)c1 [GA, Gallic acid] | concentration-dependent increase | no inhibitory effect | – | – | – | – | – | – | – | – | – | 62.3 µM | 2.10 ± 0.64 L/h
